Reference: patent publication US7019109B2, “SSTR1-selective analogs” (The Salk Institute for Bilogical Studies, priority 2001, dated 2006)
Read-outs that look alike come from different tables or passages of the source. Each block holds one compound with its values, some of them ahead of it. *1 amine or outer side, *2 acyl side, *3 side chain or, on linkers, in order; H or OH if unused. Where a SMILES comes first, the peptide text is derived from it. Bridges are numbered along the chain shown (N, C = ends). [ ]: non-standard residue; d: D form. NMePhe(4-CH2NHiPr) = CN[C@@H](Cc1ccc(CNC(C)C)cc1)C(=O)O; Phe(4-CH2NHiPr) = CC(C)NCc1ccc(C[C@H](N)C(=O)O)cc1; Tyr(3-I) = N[C@@H](Cc1ccc(O)c(I)c1)C(=O)O; X1 = NC(=O)N[C@@H](CS[*:2])C(=O)[*:1]

Tests used:
Assay type in all cases: binding
[1] = biological target: T1, human SSTR1 (Homo sapiens, UniProt P30872); assay: Displacement of 125I-[Leu8,D-Trp22,Tyr25]-SRIF-28 from cloned SSTR1 (receptor autoradiography); settings: for IC50: inhibition of radioligand binding of 125I-[Leu8,D-Trp22,Tyr24]SRIF-28, cloned receptor, table, read-out: IC50 (nM) mSSTR1; for binding strength and selectivity for SSTR1, in words: Peptide No. 27 and 2A after iodination
T1 construct: expressed in transfected cells; host or cells: CHO-K1 cells and CCL39 cells
Procedure: (§1) Generally, recombinant cells expressing the receptor are washed and homogenized to prepare a crude protein homogenate that is frozen, embedded and then cut in 10–20 μm thin sections, as known in this art. Candidate substances, such as potential SRIF agonists and antagonists, are incubated with the tissue sections, and the interaction between the candidate substance and the receptor polypeptide is monitored.
(§2) Receptor binding assays are performed on cloned SRIF receptors as generally set forth in Reubi, J. C. et al., J. Clin. Endocrinol. […] Med. 2000, 27, 273–282.
(§3) In vitro Bioassay: The various somatostatin analogs are tested in vitro for their ability to bind to isolated cloned receptors expressed on CHO-K1 cells and CCL39 cells. CHO-K1 cells are grown in Ham's F-12 medium, and CCL39 cells are grown in Dulbecco's modified Eagle's medium/Ham's F-12(1:1) mix, supplemented with 10% fetal bovine serum, 100 U/ml penicillin and 100 μg/ml streptomycin, in humidified air containing 5% CO2 at 37° C.
(§4) Cells are washed and prepared to produce homogenates as described in detail in Reubi, J. C. et al, Eur. J. Nucl. Med. 2000, 27, 273–282.
(§5) Receptor autoradiography is performed on 20 μm thick cryostat sections of the membrane pellets, mounted on microscope slides, and then stored at −20° C. […] Increasing concentrations of the unlabeled peptide are used ranging from 0.1–1000 nM. […] IC50 values are calculated after quantification of the data using a computer-assisted image processing system as known in this art.

[2] = biological target: T2, human SSTR2 (Homo sapiens, UniProt P30874); assay: Displacement of 125I-[Leu8,D-Trp22,Tyr25]-SRIF-28 from cloned SSTR2 (receptor autoradiography); settings: for IC50: read-out: IC50 (nM) mSSTR2
T2 construct: expressed in transfected cells; host or cells: CHO-K1 cells and CCL39 cells
Procedure: as §1, §2, §3, §4
(§6) Receptor autoradiography is performed on 20 μm thick cryostat sections of the membrane pellets, mounted on microscope slides, and then stored at −20° C. […] […] […] IC50 values are calculated after quantification of the data using a computer-assisted image processing system as known in this art.

[3] = biological target: T3, human SSTR3 (Homo sapiens, UniProt P32745); assay: Displacement of 125I-[Leu8,D-Trp22,Tyr25]-SRIF-28 from cloned SSTR3 (receptor autoradiography); settings: for IC50: read-out: IC50 (nM) mSSTR3
T3 construct: expressed in transfected cells; host or cells: CHO-K1 cells and CCL39 cells
Procedure: as §1, §2, §3, §4, §5

[4] = biological target: T4, human SSTR4 (Homo sapiens, UniProt P31391); assay: Displacement of 125I-[Leu8,D-Trp22,Tyr25]-SRIF-28 from cloned SSTR4 (receptor autoradiography); settings: for IC50: read-out: IC50 (nM) mSSTR4
T4 construct: expressed in transfected cells; host or cells: CHO-K1 cells and CCL39 cells
Procedure: as §1, §2, §3, §4, §5

[5] = biological target: T5, human SSTR5 (Homo sapiens, UniProt P35346); assay: Displacement of 125I-[Leu8,D-Trp22,Tyr25]-SRIF-28 from cloned SSTR5 (receptor autoradiography); settings: read-out: IC50 (nM) mSSTR5
T5 construct: expressed in transfected cells; host or cells: CHO-K1 cells and CCL39 cells
Procedure: as §1, §2, §3, §4, §6

T2 sequence (P30874 whole entry): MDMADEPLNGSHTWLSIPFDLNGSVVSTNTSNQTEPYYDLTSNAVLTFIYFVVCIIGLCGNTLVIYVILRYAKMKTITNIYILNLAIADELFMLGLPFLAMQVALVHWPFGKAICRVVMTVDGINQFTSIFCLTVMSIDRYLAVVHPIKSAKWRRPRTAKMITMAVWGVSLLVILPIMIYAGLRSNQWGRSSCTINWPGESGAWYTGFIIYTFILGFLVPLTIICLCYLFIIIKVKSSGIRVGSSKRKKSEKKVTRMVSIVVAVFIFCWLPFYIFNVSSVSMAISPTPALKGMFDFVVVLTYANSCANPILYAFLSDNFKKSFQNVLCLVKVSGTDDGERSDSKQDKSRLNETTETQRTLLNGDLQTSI
T1 sequence (P30872 whole entry): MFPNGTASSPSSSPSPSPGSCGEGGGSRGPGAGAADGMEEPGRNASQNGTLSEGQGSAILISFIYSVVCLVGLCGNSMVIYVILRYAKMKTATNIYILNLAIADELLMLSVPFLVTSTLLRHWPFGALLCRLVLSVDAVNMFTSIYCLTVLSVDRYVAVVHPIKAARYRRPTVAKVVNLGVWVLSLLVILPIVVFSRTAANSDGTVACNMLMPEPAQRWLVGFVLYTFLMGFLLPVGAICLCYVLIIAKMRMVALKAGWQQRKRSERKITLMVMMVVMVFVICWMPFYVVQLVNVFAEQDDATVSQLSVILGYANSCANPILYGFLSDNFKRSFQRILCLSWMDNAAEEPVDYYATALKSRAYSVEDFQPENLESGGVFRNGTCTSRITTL
T4 sequence (P31391 whole entry): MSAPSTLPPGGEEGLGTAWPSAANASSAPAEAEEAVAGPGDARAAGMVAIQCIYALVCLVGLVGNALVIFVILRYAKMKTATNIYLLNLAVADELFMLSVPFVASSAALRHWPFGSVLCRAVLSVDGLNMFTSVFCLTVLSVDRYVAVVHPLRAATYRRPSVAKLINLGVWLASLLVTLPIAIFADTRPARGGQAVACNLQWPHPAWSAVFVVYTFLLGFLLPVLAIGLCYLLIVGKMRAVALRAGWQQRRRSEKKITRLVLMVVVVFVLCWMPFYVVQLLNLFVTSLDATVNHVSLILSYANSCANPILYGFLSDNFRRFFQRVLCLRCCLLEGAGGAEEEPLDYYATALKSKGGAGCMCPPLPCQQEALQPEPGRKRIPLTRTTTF
T3 sequence (P32745 whole entry): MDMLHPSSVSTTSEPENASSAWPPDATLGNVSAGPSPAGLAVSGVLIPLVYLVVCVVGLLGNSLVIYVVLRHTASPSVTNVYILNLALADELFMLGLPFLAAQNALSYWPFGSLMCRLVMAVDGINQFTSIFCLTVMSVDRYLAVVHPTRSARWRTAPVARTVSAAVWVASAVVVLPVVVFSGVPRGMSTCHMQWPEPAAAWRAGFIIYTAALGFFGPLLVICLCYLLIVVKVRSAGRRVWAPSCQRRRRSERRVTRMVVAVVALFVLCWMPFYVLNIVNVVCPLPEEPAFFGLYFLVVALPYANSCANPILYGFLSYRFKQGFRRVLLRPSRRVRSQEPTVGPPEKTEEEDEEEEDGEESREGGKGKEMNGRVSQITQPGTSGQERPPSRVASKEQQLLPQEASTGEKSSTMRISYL
T5 sequence (P35346 whole entry): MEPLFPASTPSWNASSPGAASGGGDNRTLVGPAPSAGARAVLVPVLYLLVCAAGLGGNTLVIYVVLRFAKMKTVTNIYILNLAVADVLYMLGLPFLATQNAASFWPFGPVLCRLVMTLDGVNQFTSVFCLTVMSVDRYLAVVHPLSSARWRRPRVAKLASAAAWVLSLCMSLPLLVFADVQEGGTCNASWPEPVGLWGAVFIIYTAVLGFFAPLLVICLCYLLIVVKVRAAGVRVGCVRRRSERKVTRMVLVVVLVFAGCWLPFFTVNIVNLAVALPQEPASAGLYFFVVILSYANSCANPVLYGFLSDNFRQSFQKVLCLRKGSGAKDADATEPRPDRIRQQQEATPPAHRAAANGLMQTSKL

Compound: (cyclo) (DPTA)Cys-Lys-Phe-Phe-D-Trp-N^αMeIAmp-Thr-Tyr-Thr-Ser-Cys-OH [Peptide No. 26]
binding strength and selectivity for SSTR1, in words [1]: continue to bind strongly and selectively

Compound: CC(C)NCc1ccc(C[C@@H]2NC(=O)[C@@H](Cc3c[nH]c4ccccc34)NC(=O)[C@H](Cc3ccccc3)NC(=O)[C@H](Cc3ccccc3)NC(=O)[C@H](CCCCN)NC(=O)[C@@H](N)CSSC[C@@H](C(=O)O)NC(=O)[C@H](CO)NC(=O)[C@H]([C@@H](C)O)NC(=O)[C@H](Cc3ccc(O)c(I)c3)NC(=O)[C@H]([C@@H](C)O)NC2=O)cc1 [Peptide No. 2B] (H-CKFF[dW][Phe(4-CH2NHiPr)]T[Tyr(3-I)]TSC-OH; disulfide 1-11)
IC50 [2]: > 10000 nM

Compound: (cyclo) (DOTA)Cys-Lys-Phe-Phe-D-Trp-N^αMeIAmp-Thr-Tyr-Thr-Ser-Cys-OH [Peptide No. 25]
binding strength and selectivity for SSTR1, in words [1]: continue to bind strongly and selectively

Next, values leading:

IC50 [1]: 8.5 nM | IC50 [2]: > 1000 nM | IC50 [3]: > 1000 nM | IC50 [4]: 700 nM | IC50 [5]: > 1000 nM
Compound: CC(C)NCc1ccc(C[C@H]2C(=O)N[C@@H]([C@@H](C)O)C(=O)N[C@@H](Cc3ccc(O)c(I)c3)C(=O)N[C@@H]([C@@H](C)O)C(=O)N[C@@H](CO)C(=O)N[C@H](C(=O)O)CSSC[C@H](NC(N)=O)C(=O)N[C@@H](CCCCN)C(=O)N[C@@H](Cc3ccccc3)C(=O)N[C@@H](Cc3ccccc3)C(=O)N[C@H](Cc3c[nH]c4ccccc34)C(=O)N2C)cc1 [Peptide No. 12D, (cyclo)CbmCys-Lys-Phe-Phe-D-Trp-N^αMeIAmp-Thr-ITyr-Thr-Ser-Cys-OH] (KFF[dW][NMePhe(4-CH2NHiPr)]T[Tyr(3-I)]TSC-OH; linker N-10 via X1)

IC50 [2]: > 10000 nM
Compound: CC(C)NCc1ccc(C[C@@H]2NC(=O)[C@@H](Cc3c[nH]c4ccccc34)NC(=O)[C@H](Cc3ccccc3)NC(=O)[C@H](Cc3ccccc3)NC(=O)[C@H](CCCCN)NC(=O)[C@@H](NC(N)=O)CSSC[C@@H](C(=O)O)NC(=O)[C@H](CO)NC(=O)[C@H]([C@@H](C)O)NC(=O)[C@H](Cc3ccc(O)c(I)c3)NC(=O)[C@H]([C@@H](C)O)NC2=O)cc1 [Peptide No. 12B] (KFF[dW][Phe(4-CH2NHiPr)]T[Tyr(3-I)]TSC-OH; linker N-10 via X1)

binding strength and selectivity for SSTR1, in words [1]: bind strongly and selectively
Compound: (cyclo)Biucys-Lys-Phe-Phe-D-Trp-N^αMeIAmp-Thr-Tyr-Thr-Ser-Cys-OH [Peptide No. 18]

IC50 [1]: 25 nM | binding to SSTR2, in words ([2]; Peptide No. 27 iodinated): No specific binding | IC50 [2]: > 10000 nM | binding to SSTR3, in words ([3]; Peptide No. 27 iodinated): No specific binding | IC50 [3]: > 1000 nM | binding to SSTR4, in words ([4]; Peptide No. 27 iodinated): No specific binding | IC50 ([4]; inhibition of radioligand binding of 125I-[Leu8,D-Trp22,Tyr24]SRIF-28, cloned receptor, table): 300 nM
Compound: CC(C)NCc1ccc(C[C@H]2C(=O)N[C@@H]([C@@H](C)O)C(=O)N[C@@H](Cc3ccccc3)C(=O)N[C@@H]([C@@H](C)O)C(=O)N[C@@H](CO)C(=O)N[C@H](C(=O)O)CSSC[C@H](NC(=O)[C@@H](N)Cc3ccc(O)cc3)C(=O)N[C@@H](CCCCN)C(=O)N[C@@H](Cc3ccccc3)C(=O)N[C@@H](Cc3ccccc3)C(=O)N[C@H](Cc3c[nH]c4ccccc34)C(=O)N2C)cc1 [Peptide No. 27, (cyclo)H-Tyr-Cys-Lys-Phe-Phe-D-Trp-N^αMeIAmp-Thr-Phe-Thr-Ser-Cys-OH] (H-YCKFF[dW][NMePhe(4-CH2NHiPr)]TFTSC-OH; disulfide 2-12)
